Patent publication US7517881B2, “Triazine derivatives, their preparation and therapeutic application thereof” (Aventis Pharma S.A., priority 2005, dated 2009)

Biological target: T1, nicotinic receptors containing the α7 subunit (Rattus norvegicus, UniProt Q05941)
T1 construct: displace the [^3H]-MLA bond on the rat hippocampus membranes; from tissue; host or cells: hippocampus of female Sprague-Dawley rats (membrane preparation)
Assay: binding to nicotinic receptors containing the α7 subunit, competition versus [3H]-methyllycaconitine on rat hippocampus membranes
Settings: apparent affinity constant by Cheng and Prusoff, displacement of 5 nM [3H]-MLA, 2 hours at about 20° C.
Procedure: The compounds of the invention were tested for their ability to bind the nicotinic receptors containing the α7 subunit using a test of binding to preparations of rat brain membranes according to the methods described hereunder:
Frozen specimens of hippocampus from the brain of female Sprague-Dawley rats were stored at −20° C. until used. The hippocampi from 10 rats were combined and homogenized using a pulverizer of the Polytron type in 10 volumes of an ice-cooled buffer with the following composition: KCl (11 mM); KH2PO4 (6 mM); NaCl (137 mM); Na2HPO4 (8 mM); HEPES (20 mM); iodoacetamide (5 mM); EDTA (1.5 mM); PMSF (0.1 mM). The pH was adjusted to 7.4 with NaOH. […]
The binding of the compounds of the invention for receptors containing the α7 subunit was measured by competition versus [^3H]-methyllycaconitine ([^3H]-MLA), a radiolabeled tracer which recognizes the α7 receptors (Davies et al., Neuropharmacology 1999, 38, 679-690) according to conventional methods adapted to the format of 96-well plates. The ability of the compounds of the invention to displace the [^3H]-MLA bond on the rat hippocampus membranes was determined in duplicate after incubation for 2 hours at a temperature close to 20° C. […] The non-specific binding was determined in specific wells containing 10 μM of non-radiolabeled MLA. […]

T1 sequence (Q05941 23-502): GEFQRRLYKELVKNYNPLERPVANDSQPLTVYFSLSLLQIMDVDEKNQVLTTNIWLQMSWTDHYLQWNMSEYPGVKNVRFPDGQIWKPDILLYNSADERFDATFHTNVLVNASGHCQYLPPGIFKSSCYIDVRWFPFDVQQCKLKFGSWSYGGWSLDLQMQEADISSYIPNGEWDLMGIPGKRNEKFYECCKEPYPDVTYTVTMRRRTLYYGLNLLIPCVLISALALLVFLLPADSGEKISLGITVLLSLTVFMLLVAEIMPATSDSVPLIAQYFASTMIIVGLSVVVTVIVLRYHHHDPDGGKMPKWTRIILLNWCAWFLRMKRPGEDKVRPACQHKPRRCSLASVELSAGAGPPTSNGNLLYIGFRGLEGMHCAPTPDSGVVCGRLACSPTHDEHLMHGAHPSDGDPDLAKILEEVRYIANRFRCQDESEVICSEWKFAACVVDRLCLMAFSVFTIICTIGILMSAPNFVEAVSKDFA

| SMILES | Ki |
| --- | --- |
| CCN(CC)CCCNc1nnc(-c2cn(-c3ccccc3)c3ccccc23)c(=O)[nH]1 [Compound No. 11, 6-(1-phenyl-indol-3-yl)-3-(3-diethylaminopropylamino)-4H-1,2,4-triazin-5-one] | 737 nM |
| CCN(CC)CCCNc1nnc(-c2csc3ccccc23)c(=O)[nH]1 [Compound No. 12, 6-(benzothiophen-3-yl)-3-(3-diethylaminopropylamino)-4H-1,2,4-triazin-5-one] | 957 nM |
